How the values were obtained:
[1] = system: E0771 cells; assay: CD73hi E0771 syngeneic tumor model, tumor growth; format: in vivo, mice; conditions: for tumor growth inhibition, T/C: E0771, female C57BL/6 mice, Day 18 post treatment initiation
Experimental: Female C57BL/6 mice were inoculated with 1.5×10^5 E0771 cells into the right mammary fat pad and were treated with Compound A (300 mg/kg po, BID), bintrafusp alfa (8.2 mg/kg iv, days 0, 3, 6), Compound A+bintrafusp alfa, when average tumor volume reached approximately 75 mm^3. Vehicle (po, BID) and isotype control antibody injections (6.65 mg/kg iv, days 0, 3, 6) were used as controls. (A) Average tumor volumes with SEM, and (B) individual tumor volumes are presented. Tumor volume data were analyzed using two-way ANOVA followed by Tukey's multiple comparison test.
To determine whether combined treatment with the dual A2A/A2B receptor inhibitor “Compound A” ((S)-7-Oxa-2-aza-spiro[4.5]decane-2-carboxylic acid [7-(3,6-dihydro-2H-pyran-4-yl)-4-methoxy-thiazolo[4,5-c]pyridin-2-yl]-amide) and bintrafusp alfa can inhibit tumor growth in either CD73^hi or CD73^low models, tumor growth was monitored in […] syngeneic tumor models. Animals were inoculated with either CD73^hi tumor cells (4T1, E0771, or EMT6) or with CD73^low MC38, H22 or MBT2 tumor cells. For all tumor models, animals were treated with either 1) vehicle and isotype, 2) Compound A and isotype, 3) vehicle and bintrafusp alfa, or 4) Compound A and bintrafusp alfa.
In the third CD73^hi tumor model, female C57BL/6 mice were inoculated with 1.5×10^5 E0771 cells into the right mammary fat pad and were randomized into treatment groups when average tumor volume reached approximately 75 mm^3. […] Thus, to test its combination potential with Compound A in this model we had to reduce the dose for bintrafusp alfa from 24 mg/kg (iv, days 0, 3, and 6) down to 8.2 mg/kg (iv, days 0, 3, 6). Thus, E0771 tumor-bearing mice were treated with Compound A (300 mg/kg po, BID), bintrafusp alfa (8.2 mg/kg iv, days 0, 3, 6), Compound A+bintrafusp alfa starting the day 0 (when they were randomized into treatment groups). Vehicle (po, BID) and isotype control antibody injections (6.65 mg/kg iv, days 0, 3, 6) were used as controls.

[2] = system: 4T1 cells; assay: CD73hi adenosine-rich 4T1 syngeneic tumor model, tumor growth; format: in vivo; conditions: 4T1, female BALB/c mice; Day 13 post treatment initiation; Compound A 300 mg/kg po bid; bintrafusp alfa 24.6 mg/kg iv days 0, 3, 6
Experimental: (§1) Female BALB/c mice were inoculated with 5×10^4 4T1 cells into the right mammary fat pad and were treated with Compound A (300 mg/kg po, bid), bintrafusp alfa (24.6 mg/kg iv, days 0, 3, 6), Compound A+bintrafusp alfa, when average tumor volume reached approximately 60 mm^3. Vehicle (po, bid) and isotype control antibody injections (20 mg/kg iv, days 0, 3, 6) were used as controls. (A) Average tumor volumes with SEM, and (B) individual tumor volumes are presented. Tumor volume data were analyzed using two-way ANOVA followed by Tukey's multiple comparison test.
(§2) To determine whether combined treatment with the dual A2A/A2B receptor inhibitor “Compound A” ((S)-7-Oxa-2-aza-spiro[4.5]decane-2-carboxylic acid [7-(3,6-dihydro-2H-pyran-4-yl)-4-methoxy-thiazolo[4,5-c]pyridin-2-yl]-amide) and bintrafusp alfa can inhibit tumor growth in either CD73^hi or CD73^low models, tumor growth was monitored in […] syngeneic tumor models. Animals were inoculated with either CD73^hi tumor cells (4T1, E0771, or EMT6) or with CD73^low MC38, H22 or MBT2 tumor cells. For all tumor models, animals were treated with either 1) vehicle and isotype, 2) Compound A and isotype, 3) vehicle and bintrafusp alfa, or 4) Compound A and bintrafusp alfa. […]

[3] = system: EMT6 cells; assay: CD73hi EMT6 syngeneic tumor model, tumor growth; format: in vivo, mice; conditions: Day 10 post treatment initiation, Compound A 300 mg/kg po BID alone
Experimental: as §1, with “2.5×10^5 EMT6” for “5×10^4 4T1”, “BID),” for “bid),”, “BID)” for “bid)”
as §2

[4] = system: H22 cells; assay: CD73low H22 syngeneic tumor model, tumor growth; format: in vivo; conditions: H22, female BALB/c mice; Day 16 post treatment initiation; Compound A 300 mg/kg po BID; bintrafusp alfa 24.6 mg/kg iv days 0, 3, 6
Experimental: as §1, with “1×10^6 H22” for “5×10^4 4T1”, “in” for “into”, “upper flank” for “mammary fat pad”, “BID),” for “bid),”, “55 mm3.” for “60 mm^3.”, “BID)” for “bid)”
as §2

[5] = Compound A 300 mg/kg po BID, bintrafusp alfa 8.2 mg/kg iv days 0, 3, 6

COc1ncc(C2=CCOCC2)c2sc(NC(=O)N3CC[C@@]4(CCCOC4)C3)nc12 [Compound A, (S)-7-Oxa-2-aza-spiro[4.5]decane-2-carboxylic acid [7-(3,6-dihydro-2H-pyran-4-yl)-4-methoxy-thiazolo[4,5-c]pyridin-2-yl]-amide]
tumor growth inhibition, T/C [1, 5]: 72.9%
mice with CR (complete responses) ([1]; E0771, Compound A 300 mg/kg po BID, bintrafusp alfa 8.2 mg/kg iv days 0, 3, 6): 1
tumor growth inhibition, T/C [2]: 68.5%
tumor growth inhibition [3]: did not show tumor growth inhibition

bintrafusp alfa: anti-PD-L1:TGFβRII fusion protein, CAS 1918149-01-5; human IgG1 antibody against PD-L1 fused to extracellular domain of human TGF-β receptor II
tumor growth inhibition, T/C [4]: 34.4%
tumor growth inhibition, T/C [1, 5]: 65.7%
sensitivity of the tumor model ([1]; E0771, bintrafusp alfa original dose 24.6 mg/kg iv days 0, 3, and 6): high sensitivity
tumor growth inhibition, T/C [2]: 86.2%
